{
  "source": "patent US20180256556A1",
  "about": "“METHODS FOR TREATING AN IMPAIRMENT IN GAIT AND/OR BALANCE IN PATIENTS WITH MULTIPLE SCLEROSIS USING AN AMINOPYRIDINE” (Acorda Therapeutics, Inc., priority 2012, published 2018)",
  "origin": "cited, not measured here",
  "key": {"[1]": {"system": "patients with multiple sclerosis", "details": "p<0.05"}, "[2]": {"system": "potassium channels", "details": "high concentration (millimolar)"}},
  "data": [
    {"smiles": "Nc1ccncc1", "note": "[4-AP, 4-aminopyridine]", "values": [
      {"measurement": "Leg strength (LEMMT) relative to placebo", "setting": "[1]", "result": "statistically significantly improved"},
      {"measurement": "Potassium channel blocking activity", "setting": "[2]", "result": "broad-spectrum blocker of potassium channels"}
    ]}
  ]
}
